The values below come from patent US6563009B1, “Vasodilator cannabinoid analogs” (priority 1999, dated 2003).

A short description of assay [1]: Neurobehavioral tetrad (tail flick, locomotor activity, ring immobility, core body temperature). It is filed as in vivo, mice. The text has this: The protocol of the tail-flick test was as follows. The apparatus that was used for the tail-flick test contained a light source placed directly above a photocell connected to a timer. The mouse was held under a cloth by the technician conducting the experiment. The tail of the test animal was placed over the photocell and the light was turned on. When the test animal felt the discomfort of the heat from the light, it was freely able to remove its tail from the lamp. The photocell than sensed that the tail had moved and the timer was stopped. The typical nontreatment reaction time for an animal subjected to this test was about 2-4 seconds. This test involved a spinal reflex action similar to the removal of a finger from a hot stove. In treated animals, the latency to remove the tail lengthens in proportion to the analgesic potency of the drug. No animal was allowed to remain under the lamp for greater than 10 seconds to prevent any burns to the tail. No animal was subjected twice to this test.
Locomotor activity, ring immobility, and core body temperature parameters were measured as described in detail by Smith et al. (J. Pharmacol. Exp.Ther. (1994) 270; 219-227). Briefly, spontaneous locomotor activity is expressed as % inhibition vs. control. Mice were placed in individual activity cages 5 minutes post treatment, and interruption of the photocell beams (16 beams/chamber) were recorded for a 10 minute period using a Digiscan Animal Activity Monitor (Omnitech). Core temperature was measured by a rectal thermistor inserted to 25 mm, before and 30 minutes after administration of Abn-cbd. Catalepsy (ring immobility procedure) was expressed as % of total time spent motionless. Test compound can be injected into a tail vain i.v., and measurements are performed at 5 min (spontaneous motility), min (tail flick latency), 60 min (Core temperature) or 90 min (ring immobility) after drug injection.
Adult ICR mice (25-30 g) were from Harlan (Indianapolis, Ind.). Both male and female animals were used for these studies. Animals were housed four at a cage with standard mouse chow and water ad libitum, and were maintained at […] under a 12:12 light:dark cycle.

The test system of assay [2] is mesenteric vascular tone. As to the kind of experiment: Drug effects on mesenteric vascular tone in perfused mouse mesenteric area (phenylephrine-established tone). Set-up: species or system mice. The following applies: for mesenteric vasodilation: injected intraarterially as a 1 mg bolus; for inhibition of 0-1848-induced vasodilation: FIG. 2(B), 2(C); for vasodilation (agonist effect): intra arterial bolus, dose-response, FIG. 1; for dose lower than the dose of Abn-cbd required to produce similar vasodilation: relative to Abn-cbd. The protocol:
For measuring drug effects on mesenteric vascular tone in mice, sodium pentobarbital-anesthetized mice were laparotornized and a PE50 cannula was inserted distally into the abdominal aorta. Both renal and both femoral arteries were ligated, the heart removed, and the mesenteric area including the liver was perfused with oxygenated Krebs buffer at 36° C., using a peristaltic pump and a constant flow rate of 0.7 ml/min. Perfusion pressure monitored close to the inflow cannula was 25-30 mmHg, and was increased to 60-70 mmHg by the inclusion of 15 μM phenylephrine in the medium. Vasodilator effects were expressed as % relaxation of established tone, 100% being equal to the difference in perfusion pressure in the absence and presence of phenylephrine.
Perfusion pressure monitored near the inflow cannula should be 25-30 mmHg (1 mmHg[…]133 Pa) and is increased to 60-70 mmHg by the inclusion of […] phenylephrine in the medium. Vasodilation is expressed as percent relaxation of established tone, 100% being equal to the difference in perfusion pressure in the absence and presence of phenylephrine.
Evaluation of vasodilator response was performed as in Example 1 except that after addition of either the agonists 0-1602 (FIG. 2A) or 0-1848 (FIG. 2B-2C) as intra arterial bolus injections, the mesenteric preparation was perfused with either drug free buffer (solid circles) or buffer containing […].

The target in assay [3] is T1, CB1 receptors (Rattus norvegicus, UniProt P20272).
T1 construct: from tissue; host or cells: rat brain P2 membranes
T1 sequence (P20272 whole entry): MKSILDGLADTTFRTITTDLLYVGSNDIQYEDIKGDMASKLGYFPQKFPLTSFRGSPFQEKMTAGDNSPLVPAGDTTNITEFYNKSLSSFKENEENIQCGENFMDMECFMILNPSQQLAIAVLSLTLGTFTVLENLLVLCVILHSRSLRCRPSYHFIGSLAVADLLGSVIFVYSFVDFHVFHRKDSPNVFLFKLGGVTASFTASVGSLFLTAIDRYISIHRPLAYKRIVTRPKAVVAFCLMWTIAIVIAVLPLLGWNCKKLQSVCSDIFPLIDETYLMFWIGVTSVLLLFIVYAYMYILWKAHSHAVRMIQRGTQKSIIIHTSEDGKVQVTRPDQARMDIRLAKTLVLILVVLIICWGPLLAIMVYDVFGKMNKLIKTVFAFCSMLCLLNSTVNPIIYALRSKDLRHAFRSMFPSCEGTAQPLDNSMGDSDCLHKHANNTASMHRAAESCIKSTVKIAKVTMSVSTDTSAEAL
The assay is described as follows: 3H-CP-55,940 radioligand binding to P2 membranes from rat brain. The following applies: concentration of 10 μM.

Assay [4] has as its system mesenteric vascular tone. The assay is described as follows: Drug effects on mesenteric vascular tone in perfused mouse mesenteric area (phenylephrine-established tone). Details: species or system mice. Conditions: antagonist at 10 μM in perfusion buffer, FIG. 2(A).
For assay [5], the system named is mesenteric arterial bed. The following applies: cited from earlier work; for vasodilation: rat isolated / perfused mesenteric arterial bed.
The conditions of assay [6]: cited from earlier work; for neurobehavioral effects: summary statement, no dose.
The conditions of assay [7]: 10 mg/kg i.v., anesthetized rats; prevented by 3 mg/kg SR141716A; cited from earlier work.
The target of assay [8] is T1, CB1 receptors. The following applies: cited from earlier work; for binding to CB1 receptors: summary statement, no concentration.
For assay [9] the following is noted: 10 mg/kg i.v., anesthetized mice; prevented by 3 mg/kg SR141716A; cited from earlier work.
The test system of assay [10] is mesenteric arterial bed. As to the kind of experiment: Vascular tone in isolated mesenteric arterial bed, with or without antagonist or endothelial denudation. Conditions: 100 μg, species not given. Details: species or system rat. The protocol:
The methods used to analyze drug effects on vascular tone in the rat isolated mesenteric arterial bed and to achieve endothelial denudation by brief perfusion with distilled water have been described in detail elsewhere (Wagner et al.(1999), Hypertension 33 (Part II), 429-434). Because of the long lasting vasodilator effect of anandamide, R-methanandamide and abnormal cannabidiol, each preparation was tested with a single dose of the agonist, either in the absence or the presence of an antagonist.

A short description of assay [11]: Blood pressure in urethane-anaesthetized spontaneous hypertensive (SHR) rats. It is filed as in vivo. Conditions: 5 animals.
In the next assay the target is vanilloid VRI receptors (Homo sapiens, UniProt Q8NER1). Conditions: cited from earlier work.
Sequence of vanilloid VRI receptors (Q8NER1 whole entry): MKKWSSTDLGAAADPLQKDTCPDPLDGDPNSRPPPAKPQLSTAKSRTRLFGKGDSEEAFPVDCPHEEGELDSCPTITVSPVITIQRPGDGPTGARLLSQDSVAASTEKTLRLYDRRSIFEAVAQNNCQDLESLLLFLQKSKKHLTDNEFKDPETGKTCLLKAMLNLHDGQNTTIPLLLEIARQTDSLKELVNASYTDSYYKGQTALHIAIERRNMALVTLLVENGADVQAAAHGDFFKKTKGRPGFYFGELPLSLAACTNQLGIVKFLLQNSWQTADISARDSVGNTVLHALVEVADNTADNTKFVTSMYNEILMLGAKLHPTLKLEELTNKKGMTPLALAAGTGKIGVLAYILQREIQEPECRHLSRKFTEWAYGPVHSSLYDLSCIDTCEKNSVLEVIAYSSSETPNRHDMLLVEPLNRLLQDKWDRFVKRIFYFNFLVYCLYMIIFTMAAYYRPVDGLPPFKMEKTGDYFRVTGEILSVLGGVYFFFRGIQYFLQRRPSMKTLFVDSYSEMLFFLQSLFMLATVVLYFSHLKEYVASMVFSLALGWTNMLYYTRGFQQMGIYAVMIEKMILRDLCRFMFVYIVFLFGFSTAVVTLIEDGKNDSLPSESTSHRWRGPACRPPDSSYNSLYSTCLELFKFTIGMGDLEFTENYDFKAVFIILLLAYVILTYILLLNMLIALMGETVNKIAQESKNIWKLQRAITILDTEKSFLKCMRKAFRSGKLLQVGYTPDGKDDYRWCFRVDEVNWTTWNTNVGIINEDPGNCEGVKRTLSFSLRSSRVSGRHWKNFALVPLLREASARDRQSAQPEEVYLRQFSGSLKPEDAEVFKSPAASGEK

Read-outs that look alike come from different tables or passages of the source.

Consider `C=C(C)[C@@H]1CCC(C)=CC1c1c(O)cc(C)cc1O` (single isomer, unassigned; (-)) [0-1821, (−)-2-(3-3,4-trans-p-menthadien-(1,8)-orcinol], for which, in [1] (30 μg/kg), the “response in the tetrad of standard neurobehavioral effects” value (from here on “response in the tetrad”) is “does not elicit a response”. Besides, in the assay on mesenteric vascular tone [2] (FIG. 2(A), antagonist in perfusion buffer), the “inhibition of 0-1602-induced vasodilation” value is “dose-dependent pronounced inhibition”. For the same compound, the mesenteric vasodilation entry in the assay with mesenteric vascular tone [2] is “did not elicit vasodilation”. The “binding to CB1 receptors” value on CB1 receptors [3] was “no significant binding”. In addition, in the assay with mesenteric vascular tone [4], the “inhibition of the vasodilatory effect of compound 0-1602” value is given as “almost complete inhibition”.

As for `C=C(C)[C@@H]1CCC(C)=CC1c1c(O)c(I)c(C)c(I)c1O` (single isomer, unassigned; (-)) [0-1868, (−)-2-(3-3,4-trans-p-menthadien-(1,8)-4,6-diiodoorcinol], the “response in the tetrad” value in assay [1] (30 μg/kg) is given as “does not elicit a response”. Moreover, in the assay on mesenteric vascular tone [2] (antagonist in perfusion buffer), the “inhibition of 0-1848-induced vasodilation” value is on record as “dose-dependent pronounced inhibition”. Further, the mesenteric vasodilation result in the assay with mesenteric vascular tone [2] is “did not elicit mesenteric vasodilation”. Besides, at CB1 receptors [3], the “binding to CB1 receptors” value is recorded as “no significant binding”.

Consider `C=C(C)[C@@H]1CCC(C)=CC1c1c(O)cc(O)cc1CCCCC` (single isomer, unassigned; (-)) [Abn-cbd, (−)-4-(3-3,4-trans-p-menthadien-1,8)-yl-olivetol], for which the “vasodilator response in the presence of L-NAME and indomethacin” value in the assay on mesenteric arterial bed [5] (100 μM L-NAME and 10 μM indomethacin in the perfusion buffer) is given as “remains unchanged”. The “vasodilation in the presence of capsazepine” value in the assay with mesenteric arterial bed [5] (bolus injection of 4 mg, 5 μM capsazepine) is listed as “same long lasting vasodilation”. Moreover, the vasodilation entry with mesenteric arterial bed [5] is given as “caused vasodilation”. Further, the marijuana-like neurobehavioral effects entry in [6] (doses up to 60 mg/kg, mice) is on record as “does not cause marijuana-like neurobehavioral effects”. Besides, the neurobehavioral effects result in assay [6] is given as “does not elicit cannabinoid-like neurobehavioral effects”. The hypotension result in assay [7] and in [9] was “cause hypotension” in each case. For the same compound, at CB1 receptors [8] (concentrations up to 100 uM, rat brain plasma membrane preparation), the “displacement of a potent known ligand from CB1 cannabinoid receptors” value is given as “failed to displace”. The “binding to CB1 receptors” value on CB1 receptors [8] is listed as “does not bind”.

For the compound `C=C(C)[C@@H]1CCC(C)=CC1c1c(C)cc(O)cc1O` (some centres unmarked) [0-1602], in [1] (dose not given), the “response in the tetrad” value is given as “does not elicit a response”. Besides, in the assay on mesenteric vascular tone [2], the “vasodilation (agonist effect)” value is recorded as “dose-dependent pronounced vasodilation” and the “dose lower than the dose of Abn-cbd required to produce similar vasodilation” value came out at 80 ×. Further, in the assay with mesenteric arterial bed [10] (n=3, P<0.005), the “vasodilation after endothelial denudation” value is given as 18%±2 and the “vasodilation in the presence of SR141716A” value was 15%±3. Moreover, the vasodilation with mesenteric arterial bed [10] (n=4) is 54%±2.

Consider `C=C(C)[C@@H]1CCC(C)=CC1c1c(O)cccc1O` (some centres unmarked) [0-1847], for which the “response in the tetrad” value in assay [1] (30 μg/kg) is “does not elicit a response”. Besides, in the assay with mesenteric vascular tone [2] (antagonist in perfusion buffer), the “inhibition of 0-1848-induced vasodilation” value is given as “dose-dependent pronounced inhibition”. The mesenteric vasodilation entry with mesenteric vascular tone [2] is “did not elicit mesenteric vasodilation”. In addition, at CB1 receptors [3], the “binding to CB1 receptors” value is “no significant binding”.

Consider `C=C(C)[C@@H]1CCC(C)=CC1c1ccc(O)cc1O` (some centres unmarked) [0-1848], for which the “response in the tetrad” value in [1] (dose not given) is recorded as “does not elicit a response”. For the same compound, in the assay with mesenteric vascular tone [2], the “vasodilation (agonist effect)” value is “dose-dependent pronounced vasodilation” and the “dose lower than the dose of Abn-cbd required to produce similar vasodilation” value came out at 80 ×. Also, the “hypotensive effect (reduction in mean blood pressure)” value in assay [11] is listed as “elicits a hypotensive effect”.

With `CCCCCCC(C)(C)c1cc(O)c2c(c1)OC(C)(C)[C@@H]1CC=C(CO)C[C@@H]21` [HU-210], the vasodilation entry with mesenteric arterial bed [5] was “do not have a vasodilator effect”.

`CCCCCc1cc(O)c2c(c1)OC(C)(C)[C@@H]1CCC(C)=C[C@@H]21` [THC, Δ9-trahydrocannabinol]: the vasodilation entry with mesenteric arterial bed [5] is “do not have a vasodilator effect”.

Take `Cc1c(C(=O)c2cccc3ccccc23)c2cccc3c2n1[C@H](CN1CCOCC1)CO3` [WIN 55212-2]: in the assay with mesenteric arterial bed [5], the vasodilation entry is on record as “do not have a vasodilator effect”.

With `CCCCC/C=C\C/C=C\C/C=C\C/C=C\CCCC(=O)NCCO` [anandamide, arachidonyl ethanolamide], the vasodilation entry in the assay on mesenteric arterial bed [5] is given as “elicits prolonged vasodilation”.

As to `C=C(C)[C@@H]1CCC(C)=C[C@H]1c1c(O)cc(CCCCC)cc1O` [cannabidiol], in the assay on mesenteric arterial bed [5] (species not stated), the “antagonism of the vasodilator effect of Abn-cbd” value is on record as “able to antagonize” and the mesenteric vasodilation result is on record as “does not elicit mesenteric vasodilation”. Also, the neurobehavioral effects result in assay [6] is reported as “devoid of neurobehavioral effects”. The “binding to CB1 receptors” value on CB1 receptors [8] was “does not bind”.

As for `Oc1cc2c(cc1O)CN(C(=S)NCCc1ccc(Cl)cc1)CCC2` [capsazepine], the Kd (commonly the constant that tells how readily two partners part at equilibrium) at vanilloid VRI receptors was 285 nM.
